Read-outs that look alike come from different tables or passages of the source.
How the values were obtained:
[1] = biological target: T1, human CB1 receptors (Homo sapiens, UniProt P21554); assay: cAMP assay; type: cell-based
T1 construct: expressed in transfected cells; host or cells: CHO cells
Summary of the method: (§1)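 CHO cells expressing human CB1 or CB2 were preincubated 30 min at 30 °C in Krebs Ringer bicarbonate buffer with 1 mM IBMX, then exposed to compounds for 30 min at 30 °C. cAMP was measured by time-resolved FRET against a cAMP standard curve, and EC50 values were derived.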

[2] = biological target: T2, human CB2 receptors (Homo sapiens, UniProt P34972); assay: cAMP assay; type: cell-based
T2 construct: expressed in transfected cells; host or cells: CHO cells
T2 sequence (P34972 whole entry): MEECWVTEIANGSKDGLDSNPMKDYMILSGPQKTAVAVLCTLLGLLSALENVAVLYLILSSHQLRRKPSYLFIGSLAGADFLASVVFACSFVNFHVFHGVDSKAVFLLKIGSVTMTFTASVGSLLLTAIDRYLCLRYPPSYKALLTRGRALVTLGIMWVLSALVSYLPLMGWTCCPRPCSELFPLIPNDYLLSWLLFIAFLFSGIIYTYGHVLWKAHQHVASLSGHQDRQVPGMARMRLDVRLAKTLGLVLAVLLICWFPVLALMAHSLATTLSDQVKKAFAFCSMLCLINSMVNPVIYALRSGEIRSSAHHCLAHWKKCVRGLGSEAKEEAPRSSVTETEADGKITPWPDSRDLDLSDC
Summary of the method: as §1

[3] = functional cAMP assay, CHO cells expressing human CB2, read-out: human CB2 EC50

T1 sequence (P21554 whole entry): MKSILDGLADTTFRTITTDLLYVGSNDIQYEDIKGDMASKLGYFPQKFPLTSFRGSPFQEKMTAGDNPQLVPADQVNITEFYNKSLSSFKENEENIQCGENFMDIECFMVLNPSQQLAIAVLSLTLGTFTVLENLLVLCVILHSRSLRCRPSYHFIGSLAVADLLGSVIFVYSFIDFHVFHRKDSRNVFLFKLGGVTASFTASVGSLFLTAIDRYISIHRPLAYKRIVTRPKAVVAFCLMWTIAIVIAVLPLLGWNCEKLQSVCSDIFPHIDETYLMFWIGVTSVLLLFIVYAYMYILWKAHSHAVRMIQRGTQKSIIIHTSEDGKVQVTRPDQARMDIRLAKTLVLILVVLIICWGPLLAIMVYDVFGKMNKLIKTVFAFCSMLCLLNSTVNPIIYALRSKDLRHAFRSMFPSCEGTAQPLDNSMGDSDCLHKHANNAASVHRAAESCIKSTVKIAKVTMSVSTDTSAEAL

Cc1nnc(Cn2nc3nc(C(C)(C)C)nc(N4CCC(F)(F)C4)c3n2)n1C [Example 83, 5-tert-Butyl-7-(3,3-difluoro-pyrrolidin-1-yl)-2-(4,5-dimethyl-4H-[1,2,4]triazol-3-ylmethyl)-2H-[1,2,3]triazolo[4,5-d]pyrimidine]
EC50 [1]: > 10000 nM | EC50 [2]: 6.1 nM

Cc1c(Cn2nc3nc(C(C)(C)C)nc(N4CCC(F)(F)C4)c3n2)ccc[n+]1[O-] [Example 84, 5-tert-Butyl-7-(3,3-difluoro-pyrrolidin-1-yl)-2-(2-methyl-1-oxy-pyridin-3-ylmethyl)-2H-[1,2,3]triazolo[4,5-d]pyrimidine]
EC50 [1]: > 10000 nM | EC50 [2]: 94 nM

CC(C)(C)c1nc(N2CC[C@H](O)C2)c2nn(Cc3nccc(Cl)c3Cl)nc2n1 [Example 85, (S)-1-[5-tert-Butyl-2-(3,4-dichloro-pyridin-2-ylmethyl)-2H-[1,2,3]triazolo[4,5-d]pyrimidin-7-yl]-pyrrolidin-3-ol]
EC50 [1]: > 10000 nM | EC50 [2]: 10.2 nM

Cc1nc(Cn2nc3nc(C(C)(C)C)nc(N4CC[C@H](O)C4)c3n2)no1 [Example 86, (S)-1-[5-tert-Butyl-2-(5-methyl-[1,2,4]oxadiazol-3-ylmethyl)-2H-[1,2,3]triazolo[4,5-d]pyrimidin-7-yl]-pyrrolidin-3-ol]
EC50 [1]: > 10000 nM | EC50 [2]: 52.2 nM

Cc1nnc(Cn2nc3nc(C(C)(C)C)nc(N4CC[C@H](O)C4)c3n2)o1 [Example 87, (S)-1-[5-tert-Butyl-2-(5-methyl-[1,3,4]oxadiazol-2-ylmethyl)-2H-[1,2,3]triazolo[4,5-d]pyrimidin-7-yl]-pyrrolidin-3-ol]
EC50 [1]: > 10000 nM | EC50 [2, 3]: 258 nM

Cn1nnnc1Cn1nc2nc(C(C)(C)C)nc(N3CC[C@H](O)C3)c2n1 [Example 88, (S)-1-[5-tert-Butyl-2-(1-methyl-1H-tetrazol-5-ylmethyl)-2H-[1,2,3]triazolo[4,5-d]pyrimidin-7-yl]-pyrrolidin-3-ol]
EC50 [1]: > 10000 nM | EC50 [2]: 52.1 nM

Cn1ncnc1Cn1nc2nc(C(C)(C)C)nc(N3CC[C@H](O)C3)c2n1 [Example 89, (S)-1-[5-tert-Butyl-2-(2-methyl-2H-[1,2,4]triazol-3-ylmethyl)-2H-[1,2,3]triazolo[4,5-d]pyrimidin-7-yl]-pyrrolidin-3-ol]
EC50 [1]: > 10000 nM | EC50 [2, 3]: 372 nM

Cn1nncc1Cn1nc2nc(C(C)(C)C)nc(N3CC[C@H](O)C3)c2n1 [Example 90, (S)-1-[5-tert-Butyl-2-(3-methyl-3H-[1,2,3]triazol-4-ylmethyl)-2H-[1,2,3]triazolo[4,5-d]pyrimidin-7-yl]-pyrrolidin-3-ol]
EC50 [1]: > 10000 nM | EC50 [2]: 40.7 nM

Cc1cc(Cn2nc3nc(C(C)(C)C)nc(N4CC[C@H](O)C4)c3n2)n(C)n1 [Example 91, (S)-1-[5-tert-Butyl-2-(2,5-dimethyl-2H-pyrazol-3-ylmethyl)-2H-[1,2,3]triazolo[4,5-d]pyrimidin-7-yl]-pyrrolidin-3-ol]
EC50 [1]: > 10000 nM | EC50 [2, 3]: 124 nM

CC(C)(C)c1nc(N2CCC(F)(F)C2)c2nn(Cc3nnnn3C3CC3)nc2n1 [Example 92, 5-tert-Butyl-2-(1-cyclopropyl-1H-tetrazol-5-ylmethyl)-7-(3,3-difluoro-pyrrolidin-1-yl)-2H-[1,2,3]triazolo[4,5-d]pyrimidine]
EC50 [1]: 1580 nM | EC50 [2]: 5 nM

CC(C)(C)c1nc(N2CC[C@H](O)C2)c2nn(Cc3cccnc3Nc3ccc([N+](=O)[O-])c4nonc34)nc2n1 [Example 93, (S)-1-{5-tert-Butyl-2-[2-(7-nitro-benzo[1,2,5]oxadiazol-4-ylamino)-pyridin-3-ylmethyl]-2H-[1,2,3]triazolo[4,5-d]pyrimidin-7-yl}-pyrrolidin-3-ol]
EC50 [1]: > 10000 nM | EC50 [2, 3]: 270 nM

CC(C)(C)c1nc(N2CC[C@H](O)C2)c2nn(Cc3nnnn3C3CC3)nc2n1 [Example 94, (S)-1-[5-tert-Butyl-2-(1-cyclopropyl-1H-tetrazol-5-ylmethyl)-2H-[1,2,3]triazolo[4,5-d]pyrimidin-7-yl]-pyrrolidin-3-ol]
EC50 [1]: > 10000 nM | EC50 [2, 3]: 251 nM

Cc1nc(Cn2nc3nc(C(C)(C)C)nc(N4CC[C@H](O)C4)c3n2)n(C)n1 [Example 95, (S)-1-[5-tert-Butyl-2-(2,5-dimethyl-2H-[1,2,4]triazol-3-ylmethyl)-2H-[1,2,3]triazolo[4,5-d]pyrimidin-7-yl]-pyrrolidin-3-ol]
EC50 [1]: > 10000 nM | EC50 [2, 3]: 257 nM

Cc1nc(Cn2nc3nc(C(C)(C)C)nc(N4CCC(F)(F)C4)c3n2)n(C)n1 [Example 96, 5-tert-Butyl-7-(3,3-difluoro-pyrrolidin-1-yl)-2-(2,5-dimethyl-2H-[1,2,4]triazol-3-ylmethyl)-2H-[1,2,3]triazolo[4,5-d]pyrimidine]
EC50 [1]: > 10000 nM | EC50 [2]: 22.6 nM

CC(C)(C)c1nc(N2CC[C@H](O)[C@@H]2CO)c2nn(Cc3nnnn3C3CC3)nc2n1 [Example 97, (2S,3S)-1-[5-tert-Butyl-2-(1-cyclopropyl-1H-tetrazol-5-ylmethyl)-2H-[1,2,3]triazolo[4,5-d]pyrimidin-7-yl]-2-hydroxymethyl-pyrrolidin-3-ol]
EC50 [1]: > 10000 nM | EC50 [2, 3]: 144 nM

Cc1nonc1Cn1nc2nc(C(C)(C)C)nc(N3CC[C@H](O)[C@@H]3CO)c2n1 [Example 98, (2S,3S)-1-[5-tert-Butyl-2-(4-methyl-furazan-3-ylmethyl)-2H-[1,2,3]triazolo[4,5-d]pyrimidin-7-yl]-2-hydroxymethyl-pyrrolidin-3-ol]
EC50 [1]: > 10000 nM | EC50 [2, 3]: 211 nM

Cc1nonc1Cn1nc2nc(C(C)(C)C)nc(N3CC(F)(F)C(F)(F)C3)c2n1 [Example 99, 5-tert-Butyl-2-(4-methyl-furazan-3-ylmethyl)-7-(3,3,4,4-tetrafluoro-pyrrolidin-1-yl)-2H-[1,2,3]triazolo[4,5-d]pyrimidine]
EC50 [1]: > 10000 nM | EC50 [2]: 0.9 nM

Cc1noc(Cn2nc3nc(C(C)(C)C)nc(N4CC(F)(F)C(F)(F)C4)c3n2)n1 [Example 100, 5-tert-Butyl-2-(3-methyl-[1,2,4]oxadiazol-5-ylmethyl)-7-(3,3,4,4-tetrafluoro-pyrrolidin-1-yl)-2H-[1,2,3]triazolo[4,5-d]pyrimidine]
EC50 [1]: > 10000 nM | EC50 [2]: 4.6 nM

Cc1nnc(Cn2nc3nc(C(C)(C)C)nc(N4CC(F)(F)C(F)(F)C4)c3n2)o1 [Example 101, 5-tert-Butyl-2-(5-methyl-[1,3,4]oxadiazol-2-ylmethyl)-7-(3,3,4,4-tetrafluoro-pyrrolidin-1-yl)-2H-[1,2,3]triazolo[4,5-d]pyrimidine]
EC50 [1]: > 10000 nM | EC50 [2]: 15.7 nM

Cn1nnnc1Cn1nc2nc(C(C)(C)C)nc(N3CC(F)(F)C(F)(F)C3)c2n1 [Example 102, 5-tert-Butyl-2-(1-methyl-1H-tetrazol-5-ylmethyl)-7-(3,3,4,4-tetrafluoro-pyrrolidin-1-yl)-2H-[1,2,3]triazolo[4,5-d]pyrimidine]
EC50 [1]: > 10000 nM | EC50 [2]: 6.3 nM

Cc1nnc(Cn2nc3nc(C(C)(C)C)nc(N4CC(F)(F)C(F)(F)C4)c3n2)n1C [Example 103, 5-tert-Butyl-2-(4,5-dimethyl-4H-[1,2,4]triazol-3-ylmethyl)-7-(3,3,4,4-tetrafluoro-pyrrolidin-1-yl)-2H-[1,2,3]triazolo[4,5-d]pyrimidine]
EC50 [1]: > 10000 nM | EC50 [2]: 20.9 nM

Cn1nncc1Cn1nc2nc(C(C)(C)C)nc(N3CC(F)(F)C(F)(F)C3)c2n1 [Example 104, 5-tert-Butyl-2-(3-methyl-3H-[1,2,3]triazol-4-ylmethyl)-7-(3,3,4,4-tetrafluoro-pyrrolidin-1-yl)-2H-[1,2,3]triazolo[4,5-d]pyrimidine]
EC50 [1]: > 10000 nM | EC50 [2]: 10.1 nM

Cc1nnc(Cn2nc3nc(C(C)(C)C)nc(N4CC5(COC5)C4)c3n2)n1C [Example 106, 5-tert-Butyl-2-(4,5-dimethyl-4H-[1,2,4]triazol-3-ylmethyl)-7-(2-oxa-6-aza-spiro[3.3]hept-6-yl)-2H-[1,2,3]triazolo[4,5-d]pyrimidine]
EC50 [1]: > 10000 nM | EC50 [2]: 62.7 nM

CC(C)(C)c1nc(N2CC3(COC3)C2)c2nn(Cc3ccccc3S(C)(=O)=O)nc2n1 [Example 107, 5-tert-Butyl-2-(2-methanesulfonyl-benzyl)-7-(2-oxa-6-aza-spiro[3.3]hept-6-yl)-2H-[1,2,3]triazolo[4,5-d]pyrimidine]
EC50 [1]: > 10000 nM | EC50 [2]: 8.4 nM

CC(C)(C)c1nc(N2CC3(COC3)C2)c2nn(Cc3ncccc3Cl)nc2n1 [Example 108, 5-tert-Butyl-2-(3-chloro-pyridin-2-ylmethyl)-7-(2-oxa-6-aza-spiro[3.3]hept-6-yl)-2H-[1,2,3]triazolo[4,5-d]pyrimidine]
EC50 [1]: 362 nM | EC50 [2]: 5.2 nM

O[C@H]1CCN(c2nc(OCC(F)(F)F)nc3nn(Cc4ccccc4Cl)nc23)C1 [Example 109, (S)-1-[2-(2-Chloro-benzyl)-5-(2,2,2-trifluoro-ethoxy)-2H-[1,2,3]triazolo[4,5-d]pyrimidin-7-yl]-pyrrolidin-3-ol]
EC50 [1]: > 10000 nM | EC50 [2, 3]: 107 nM

O[C@H]1CCN(c2nc(OCC(F)(F)F)nc3nn(Cc4ccccc4C(F)(F)F)nc23)C1 [Example 110, (S)-1-[5-(2,2,2-Trifluoro-ethoxy)-2-(2-trifluoromethyl-benzyl)-2H-[1,2,3]triazolo[4,5-d]pyrimidin-7-yl]-pyrrolidin-3-ol]
EC50 [1]: > 10000 nM | EC50 [2]: 60 nM

CC(C)Oc1nc(N2CC[C@H](O)C2)c2nn(Cc3ccccc3Cl)nc2n1 [Example 111, (S)-1-[2-(2-Chloro-benzyl)-5-isopropoxy-2H-[1,2,3]triazolo[4,5-d]pyrimidin-7-yl]-pyrrolidin-3-ol]
EC50 [1]: > 10000 nM | EC50 [2, 3]: 265 nM

Cn1nnnc1Cn1nc2nc(OCC(C)(C)C)nc(N3CCC(F)(F)C3)c2n1 [Example 112, 7-(3,3-Difluoro-pyrrolidin-1-yl)-5-(2,2-dimethyl-propoxy)-2-(1-methyl-1H-tetrazol-5-ylmethyl)-2H-[1,2,3]triazolo[4,5-d]pyrimidine]
EC50 [1]: > 10000 nM | EC50 [2]: 30.9 nM

Reference: patent US9067943B2, “[1,2,3]triazolo[4,5-D]pyrimidine derivatives” (priority 2011, dated 2015)
